# Values quoted from earlier work in patent publication US7022337B2 (Shire Laboratories, Inc., priority 2002, dated 2006).
# Details: prolonged treatment, 300 to 400 mg per day
compound,measurement,value
"CC(C)OC(=O)C(C)(C)Oc1ccc(C(=O)c2ccc(Cl)cc2)cc1 [Fenofibrate, 2-[4-(4-Chlorobenzoyl)phenoxy]-2-methylpropanoic acid 1-methylethyl ester]",Reduction in the levels of triglycerides,40 to 50%
same,Reduction in total cholesterol,20 to 25%
